Test results: PMC6264186, “Development of a Highly Sensitive and Specific Immunoassay for Determining Chrysoidine, A Banned Dye, in Soybean Milk Film” (Molecules, 2011)
Converted amounts (≈) assume the structure as drawn.

Tests used:
[1] = tested on: polyclonal Ab 2 (antibody to chrysoidine, from Hapten 2); experiment: indirect competitive ELISA (icELISA) with polyclonal Ab 2; assay type: binding, New Zealand white rabbits; settings: for Cross-reactivity / IC50: polyclonal Ab 2, coating antigen Hapten 1-OVA; for Cross-reactivity: CR = IC50(chrysoidine)/IC50(interferent) x 100
Procedure: Specificity of the optimized assay was tested by measuring the cross-reactivity using a group of structurally related dyes. Twenty-four compounds were selected for testing the cross-reactivity (CR) (Table 1). The CR was calculated as follows: CR(%) = [IC50(chrysoidine) / IC50(interferent)] × 100.

[2] = tested on: polyclonal Ab 2 (antibody to chrysoidine, from Hapten 2); experiment: as above; assay type: binding, New Zealand white rabbits; settings: coating antigen Hapten 2-OVA 17 ng/mL, Ab 2 dilution 10000 (homologous)
[3] = tested on: Ab 1 (antibody to chrysoidine, from Hapten 1); experiment: indirect competitive ELISA (icELISA) with polyclonal Ab 1
Procedure: Checkerboard assays, in which antibodies were titrated against various amounts of the coating antigen, were used to measure the reactivity of antibodies and to select an appropriate antigen coating and antibody dilutions for competitive indirect assays. […] The concentrations of the antibodies and the coating antigen chosen were further optimized.
The procedure for the competitive assay was as follows. Microtiter plates were coated with hapten-OVA (100–1000 ng/mL, 100 µL/well) in carbonate-bicarbonate buffer (50 mM, pH 9.6) by overnight incubation at 4 °C. The plates were blocked with blocking solution by incubation for 3 h. Serial dilution of the analyte in methanol-PBST (1:9, v:v, 50 µL/well) were added, followed by 50 µL/well of antibody diluted (1/1,000–1/10,000) with PBST solution. After incubation for about 30–60 min, 100 µL/well of a diluted (1/10,000) goat anti-rabbit IgG-HRP was added. The mixture was incubated for 60 min, and 100 µL/well of a TMB solution was added. The reaction was stopped after an appropriate time (typically 8 min) by adding 10% (v:v) H2SO4 (50 µL), and the absorbance was read at 450 nm.

[4] = coating antigen Hapten 1-OVA 20 ng/mL, Ab 2 dilution 4000 (heterologous)
[5] = coating antigen Hapten 1-OVA 20 ng/mL, Ab 1 dilution 8000 (homologous)
[6] = coating antigen Hapten 2-OVA 20 ng/mL, Ab 1 dilution 20000 (heterologous)

Compound	Cross-reactivity [1] [%]	IC50 ([1]; class symbol ND) [µM]	other results
O=[N+]([O-])c1ccc(N=Nc2c(O)ccc3ccccc23)cc1 [1-(4-nitrophenyl-azo)-2-naphthol]	≤0.01	> 13.3	–
O=C(O)C1=NN(c2ccc(S(=O)(=O)O)cc2)C(=O)C1/N=N/c1ccc(S(=O)(=O)O)cc1 (centres unmarked) [Acid Yellow 23]	0.04	–	IC50 [1]: 3.05 µM
COc1cc(S(=O)(=O)O)c(C)cc1/N=N/c1c(O)ccc2cc(S(=O)(=O)O)ccc12 [Allura Red]	≤0.01	> 13.3	–
O=S(=O)(O)c1ccc2c(/N=N/c3ccc(S(=O)(=O)O)c4ccccc34)c(O)c(S(=O)(=O)O)cc2c1 [Amaranth]	≤0.01	> 13.3	–
CN(C)c1ccc(C(=N)c2ccc(N(C)C)cc2)cc1 [Auramine O]	0.2	–	IC50 [1]: 0.798 µM
O=S(=O)(O)c1ccc(/N=N/c2cc(S(=O)(=O)O)c3ccccc3c2O)c2ccccc12 [Azorubine]	≤0.01	> 13.3	–
CCN(Cc1cccc(S(=O)(=O)O)c1)c1ccc(C(=C2C=CC(=[N+](CC)Cc3cccc(S(=O)(=O)O)c3)C=C2)c2ccc(O)cc2S(=O)(=O)[O-])cc1 [Brilliant blue-85]	≤0.01	> 13.3	–
Cc1c(C(=O)O)c(O)cc2c1C(=O)c1c(O)c([C@@H]3O[C@H](CO)[C@@H](O)[C@H](O)[C@H]3O)c(O)c(O)c1C2=O [Carminic acid]	≤0.01	> 13.3	–
Nc1ccc(/N=N/c2ccccc2)c(N)c1 [Chrysoidine]	100.0	–	IC50 (50% inhibitory concentration) [1, 4]: 0.33 ng/mL (≈ 0.00155 µM); LOD (10% inhibitory concentration) [1, 4]: 0.04 ng/mL; LOD (10% inhibitory concentration) ([1]; coating antigen Hapten 1-OVA 20 ng/mL, Ab 2 dilution 4000 (heterologous), listed as chrysoidine): ≤ 0.04 ng/mL; limit of quantitation (LOQ, 20%-80% inhibitory concentration) ([1]; coating antigen Hapten 1-OVA, Ab 2 (heterologous)): 0.09 to 4.9 ng/mL; IC50 [1]: 0.00133 µM; IC50 [2]: 10.6 ng/mL (≈ 0.0499 µM); LOD (10% inhibitory concentration) [2]: 3.8 ng/mL; IC50 [3, 5]: 7.4 ng/mL (≈ 0.0349 µM); LOD (10% inhibitory concentration) [3, 5]: 0.8 ng/mL; IC50 [3, 6]: 1.6 ng/mL (≈ 0.00754 µM); LOD (10% inhibitory concentration) [3, 6]: 0.4 ng/mL
O=C1OC2(c3ccccc31)c1cc(I)c(O)c(I)c1Oc1c2cc(I)c(O)c1I [Erythrosine]	≤0.01	> 13.3	–
Nc1ccc(N=Nc2ccc(C(=O)O)cc2)c(N)c1 [Hapten1, 4-((2,4-Diaminophenyl)diazenyl)benzoic acid]	169.8	–	IC50 [1]: 0.00078 µM; Cross-reactivity ([1]; listed as Hapten 1): 170%
Nc1ccc(N=Nc2ccc(CC(=O)O)cc2)c(N)c1 [Hapten2, 2-(4-((2,4-Diaminophenyl)diazenyl)phenyl)acetic acid]	127.0	–	IC50 [1]: 0.00105 µM; Cross-reactivity ([1]; listed as Hapten 2): 127%
O=C1/C(=C2\Nc3ccccc3C2=O)Nc2ccccc21 [Indigo]	≤0.01	> 13.3	–
Nc1nc(N)nc(N)n1 [Melamine]	≤0.01	> 13.3	–
O=S(=O)(O)c1ccc(/N=N/c2ccc(Nc3ccccc3)cc2)cc1 [Orange yellow]	≤0.01	> 13.3	–
O=S(=O)(O)c1ccc(/N=N/c2ccc(O)c3ccccc23)cc1 [Orangeim]	0.1	–	IC50 [1]: 1.12 µM; Cross-reactivity ([1]; listed as orangeim): 0.12%
O=C1OC2(c3ccc(Cl)cc3Oc3cc(Cl)ccc32)c2ccccc21 [Reddish orange]	≤0.01	> 13.3	–
Cc1ccc([N+](=O)[O-])cc1N [Scarlet Base G]	≤0.01	> 13.3	–
Oc1ccc2ccccc2c1/N=N/c1ccccc1 [Sudan Red I]	≤0.01	> 13.3	–
O=S(=O)(O)c1ccc(/N=N/c2c(O)ccc3cc(S(=O)(=O)O)ccc23)cc1 [Sunset yellow]	≤0.01	> 13.3	–
O=C(O)C1=NN(c2ccc(S(=O)(=O)O)cc2)C(=O)C1/N=N/c1ccc(S(=O)(=O)O)cc1 (centres unmarked) [Tartrazine]	≤0.01	> 13.3	–
Acid Red 94	≤0.01	> 13.3	–
Carmine	≤0.01	> 13.3	–
